Compound in assay [1]: CS(=O)(=O)c1ccc(C(=O)Nc2ccc(Cl)c(-c3ccccn3)c2)c(Cl)c1 [VISMODEGIB]
In words: surviving fraction relative to DMSO-only wells; higher = less growth inhibition. Particulars: exposure time: 5 days. The method in brief: (§1)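 After seeding at 250–500 cells per well in 384-well plates and a 24-hour wait, log-phase tumour cell lines were exposed without interruption for five days to inhibitors at 0.5, 1, 5, 10, 50, 100, 500 and 1000 nM. CellTiter-Glo luminescence was recorded after 10 minutes at room temperature. Viability is reported as surviving fraction, the luminescence normalised to the median of DMSO-only wells.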

Compound in assay [2]: C=CCNC1=C2C[C@@H](C)C[C@H](OC)[C@H](O)[C@@H](C)/C=C(\C)[C@H](OC(N)=O)[C@@H](OC)/C=C\C=C(/C)C(=O)NC(=CC1=O)C2=O [17-AAG]
The description is as above. The following applies: exposure time: 5 days. The method in brief:
as §1

± gives the standard deviation of the averaged measurements.

We go through seven test systems from the supplement of paper PMC6045584.

For the test system G292 BONE, the surviving fraction in assay [1] (0.5 nM) came to 0.963 ± 0.032; in assay [1] (1 nM), 0.989 ± 0.018; in assay [1] (5 nM), 1.01 ± 0.057; in assay [1] (10 nM), 0.96 ± 0.016; in assay [1] (50 nM), 0.959 ± 0.049; in assay [1] (100 nM) it was 0.975 ± 0.019. Also, the surviving fraction in assay [1] (500 nM) was determined as 0.927 ± 0.061; in assay [1] (1000 nM) it was 0.932 ± 0.014; in assay [2] (0.5 nM) it was 0.928 ± 0.035; in assay [2] (1 nM) it was 0.934 ± 0.031; in assay [2] (5 nM), 0.956 ± 0.052; in assay [2] (10 nM) it was 0.792 ± 0.018. Besides, the surviving fraction in assay [2] (50 nM) was 0.295 ± 0.018; in assay [2] (100 nM), 0.266 ± 0.0069; in assay [2] (500 nM), 0.0898 ± 0.01; in assay [2] (1000 nM), 0.087 ± 0.004.

As for HCC38 BREAST, the surviving fraction turned out to be 0.743 ± 0.17 in assay [1] (0.5 nM); 0.928 ± 0.2 in assay [1] (1 nM); 0.895 ± 0.31 in assay [1] (5 nM); 1.12 ± 0.38 in assay [1] (10 nM); 0.668 ± 0.12 in assay [1] (50 nM); 0.677 ± 0.24 in assay [1] (100 nM). The surviving fraction in assay [1] (500 nM) was 0.743 ± 0.24; in assay [1] (1000 nM), 0.609 ± 0.11; in assay [2] (0.5 nM) it was 0.802 ± 0.19; in assay [2] (1 nM), 0.906 ± 0.26; in assay [2] (5 nM), 0.293 ± 0.082; in assay [2] (10 nM), 0.185 ± 0.067. The surviving fraction in assay [2] (50 nM) is 0.0753 ± 0.022; in assay [2] (100 nM), 0.0727 ± 0.0085; in assay [2] (500 nM), 0.059 ± 0.0092; in assay [2] (1000 nM), 0.0613 ± 0.0025.

Take HCC70 BREAST: the surviving fraction in assay [1] (0.5 nM) came to 0.977 ± 0.041; in assay [1] (1 nM), 0.964 ± 0.067; in assay [1] (5 nM) it was 1.14 ± 0.055; in assay [1] (10 nM), 1.11 ± 0.012; in assay [1] (50 nM), 1.11 ± 0.084; in assay [1] (100 nM), 1.12 ± 0.048. The surviving fraction in assay [1] (500 nM) amounted to 1.04 ± 0.037; in assay [1] (1000 nM), 1.1 ± 0.026; in assay [2] (0.5 nM), 1.01 ± 0.09; in assay [2] (1 nM), 0.971 ± 0.066; in assay [2] (5 nM), 1.01 ± 0.046; in assay [2] (10 nM), 0.804 ± 0.0083. The surviving fraction in assay [2] (50 nM) worked out at 0.091 ± 0.017; in assay [2] (100 nM) it was 0.0907 ± 0.012; in assay [2] (500 nM), 0.073 ± 0.017; in assay [2] (1000 nM), 0.0667 ± 0.0091.

Turning to HMLE3 BREAST, the surviving fraction in assay [1] (0.5 nM) turned out to be 0.911 ± 0.11; in assay [1] (1 nM) it was 0.929 ± 0.037; in assay [1] (5 nM), 1 ± 0.03; in assay [1] (10 nM), 0.949 ± 0.013; in assay [1] (50 nM) it was 0.882 ± 0.096; in assay [1] (100 nM), 0.969 ± 0.038. Further, the surviving fraction in assay [1] (500 nM) turned out to be 0.882 ± 0.15; in assay [1] (1000 nM), 0.893 ± 0.11; in assay [2] (0.5 nM) it was 0.875 ± 0.029; in assay [2] (1 nM) it was 0.889 ± 0.079; in assay [2] (5 nM), 0.973 ± 0.037; in assay [2] (10 nM), 0.925 ± 0.062. For the same test system, the surviving fraction in assay [2] (50 nM) came to 0.0453 ± 0.0025; in assay [2] (100 nM), 0.0247 ± 0.0011; in assay [2] (500 nM), 0.021 ± 0.002; in assay [2] (1000 nM), 0.024 ± 0.001.

In the case of HMT3552 BREAST, the surviving fraction in assay [1] (0.5 nM) worked out at 1.07; in assay [1] (1 nM) it was 1.02; in assay [1] (5 nM), 1.05; in assay [1] (10 nM) it was 1.06; in assay [1] (50 nM) it was 0.804; in assay [1] (100 nM), 1.16. In addition, the surviving fraction in assay [1] (500 nM) worked out at 0.925; in assay [1] (1000 nM) it was 0.937; in assay [2] (0.5 nM), 0.913; in assay [2] (1 nM), 0.915; in assay [2] (5 nM), 1.15; in assay [2] (10 nM) it was 0.904. The surviving fraction in assay [2] (50 nM) was found to be 0.087; in assay [2] (100 nM), 0.064; in assay [2] (500 nM), 0.056; in assay [2] (1000 nM), 0.062.

On to HS57T BREAST, for which the surviving fraction came out at 0.986 ± 0.066 in assay [1] (0.5 nM); 0.987 ± 0.04 in assay [1] (1 nM); 1.01 ± 0.062 in assay [1] (5 nM); 1.04 ± 0.055 in assay [1] (10 nM); 1.04 ± 0.028 in assay [1] (50 nM); 0.959 ± 0.038 in assay [1] (100 nM). For the same test system, the surviving fraction in assay [1] (500 nM) was 0.991 ± 0.037; in assay [1] (1000 nM), 0.978 ± 0.021; in assay [2] (0.5 nM), 0.973 ± 0.08; in assay [2] (1 nM), 0.919 ± 0.025; in assay [2] (5 nM), 0.699 ± 0.064; in assay [2] (10 nM), 0.263 ± 0.032. Moreover, the surviving fraction in assay [2] (50 nM) came to 0.134 ± 0.011; in assay [2] (100 nM), 0.126 ± 0.0038; in assay [2] (500 nM), 0.105 ± 0.0035; in assay [2] (1000 nM), 0.106 ± 0.0049.

With HS578T BREAST, the surviving fraction in assay [1] (0.5 nM) is 0.936 ± 0.14; in assay [1] (1 nM), 0.934 ± 0.077; in assay [1] (5 nM), 1.05 ± 0.062; in assay [1] (10 nM), 0.964 ± 0.069; in assay [1] (50 nM), 0.871 ± 0.11; in assay [1] (100 nM) it was 0.881 ± 0.051. The surviving fraction in assay [1] (500 nM) turned out to be 0.913 ± 0.15; in assay [1] (1000 nM) it was 0.983 ± 0.15; in assay [2] (0.5 nM), 0.904 ± 0.057; in assay [2] (1 nM) it was 0.928 ± 0.033; in assay [2] (5 nM) it was 0.525 ± 0.1; in assay [2] (10 nM), 0.409 ± 0.051. Further, the surviving fraction in assay [2] (50 nM) is 0.281 ± 0.049; in assay [2] (100 nM), 0.234 ± 0.022; in assay [2] (500 nM), 0.213 ± 0.026; in assay [2] (1000 nM), 0.222 ± 0.026.
